The experiment relates to L1210 leukemia ip in BDF1 mice, survival T/C. Put plainly: NCI In Vivo Anticancer Drug Screen. Data for tumor model L1210 Leukemia (intraperitoneal) in B6D2F1 (BDF1) mice. Particulars: endpoint: mean survival time, higher = longer survival. Summed up:
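Tumor cells were implanted, animals were treated, and survival was followed. The result divides the treated measurement by the vehicle-control measurement.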

Where [1] appears, read: dose: 100.0 mg/kg/injection, schedule: Q01DX009 (ip), vehicle: saline.
The mark [2] stands for this setting: dose: 200.0 mg/kg/injection, schedule: Q01DX009 (ip), vehicle: saline.
Setting [3] is: dose: 100.0 mg/kg/injection, schedule: Q01DX009 (ip), vehicle: saline with Tween-80.
[4] abbreviates: dose: 100.0 mg/kg/injection, schedule: Q04DX003 (ip), vehicle: saline with Tween-80.
[5] abbreviates: dose: 200.0 mg/kg/injection, schedule: Q04DX003 (ip), vehicle: saline with Tween-80.
[6] abbreviates: dose: 100.0 mg/kg/injection, schedule: Q01DX001 (ip), vehicle: saline.
The mark [7] stands for this setting: dose: 200.0 mg/kg/injection, schedule: Q01DX001 (ip), vehicle: saline.
[8] abbreviates: dose: 400.0 mg/kg/injection, schedule: Q01DX001 (ip), vehicle: saline.
[9] abbreviates: dose: 200.0 mg/kg/injection, schedule: Q01DX009 (ip), vehicle: saline with Tween-80.
The mark [10] stands for this setting: dose: 400.0 mg/kg/injection, schedule: Q01DX009 (ip), vehicle: saline with Tween-80.
The mark [11] stands for this setting: dose: 100.0 mg/kg/injection, schedule: Q01DX009 (ip), vehicle: Klucel (hydroxypropylcellulose) (HPC).
[12] abbreviates: dose: 200.0 mg/kg/injection, schedule: Q01DX009 (ip), vehicle: Klucel (hydroxypropylcellulose) (HPC).
Setting [13] is: dose: 400.0 mg/kg/injection, schedule: Q01DX009 (ip), vehicle: Klucel (hydroxypropylcellulose) (HPC).

The structures appear in SMILES notation. Inconclusive results and toxic doses are left out.

Regarding `CC1OCC(C)(CO)CO1` (stereo unspecified), the T/C runs as follows: (dose: 50.0 mg/kg/injection, schedule: Q01DX009 (ip), vehicle: saline) 102 % of control; under setting [1], 101 % of control; (dose: 100.0 mg/kg/injection, schedule: Q04DX003 (ip), vehicle: acetone) 106 % of control; under setting [2], 98 % of control; (dose: 200.0 mg/kg/injection, schedule: Q04DX003 (ip), vehicle: acetone) 122 % of control; (dose: 400.0 mg/kg/injection, schedule: Q04DX003 (ip), vehicle: acetone) 111 % of control.
Take `N#CSc1c[nH]c2ccccc12`: the T/C (dose: 50.0 mg/kg/injection, schedule: Q01DX009 (ip), vehicle: saline with Tween-80) was 96 % of control; the T/C under setting [3] is 101 % of control; the T/C under setting [4] is 104 % of control; the T/C under setting [5] is 95 % of control.
With `O=C(O)c1ccc(I)cc1.[Ni]`, the T/C (dose: 25.0 mg/kg/injection, schedule: Q04DX002 (ip), vehicle: Klucel (hydroxypropylcellulose) (HPC)) is 100 % of control and the T/C (dose: 50.0 mg/kg/injection, schedule: Q04DX002 (ip), vehicle: Klucel (hydroxypropylcellulose) (HPC)) is 100 % of control.
Consider `NC1CCS(=O)(=O)C1` (stereo unspecified), for which the T/C under setting [6] is 95 % of control, the T/C under setting [7] is 98 % of control and the T/C under setting [8] was 101 % of control.
For the compound `O=C(Nc1cccc(CSc2nc3nc[nH]c(=O)c3[nH]2)c1)Oc1ccccc1`, the T/C reads like this: (dose: 50.0 mg/kg/injection, schedule: Q01DX001 (ip), vehicle: Klucel (hydroxypropylcellulose) (HPC)) 96 % of control; (dose: 100.0 mg/kg/injection, schedule: Q01DX001 (ip), vehicle: Klucel (hydroxypropylcellulose) (HPC)) 91 % of control; (dose: 200.0 mg/kg/injection, schedule: Q01DX001 (ip), vehicle: Klucel (hydroxypropylcellulose) (HPC)) 98 % of control.
For the compound `CC(=O)OC1C(C2CSC(=O)O2)OC2OC(C)(C)OC21` (stereo unspecified), the T/C is 89 % of control (dose: 25.0 mg/kg/injection, schedule: Q04DX002 (ip), vehicle: saline); 103 % of control (dose: 50.0 mg/kg/injection, schedule: Q04DX002 (ip), vehicle: saline); 92 % of control (dose: 100.0 mg/kg/injection, schedule: Q04DX002 (ip), vehicle: saline).
For `Oc1c(CN2CCOCC2)cc(CN2CCOCC2)cc1CN1CCOCC1`, the T/C is 116 % of control under setting [6]; 95 % of control under setting [1]; 104 % of control under setting [4]; 98 % of control under setting [7]; 90 % of control under setting [2]; 95 % of control under setting [5]. Further, the T/C was 96 % of control under setting [8]; 100 % of control (dose: 400.0 mg/kg/injection, schedule: Q01DX009 (ip), vehicle: saline); 98 % of control (dose: 400.0 mg/kg/injection, schedule: Q04DX003 (ip), vehicle: saline with Tween-80).
Consider `CCN(CC)Cc1c(O)ccc2c3c(c(=O)oc12)CCCC3`, for which the T/C was 103 % of control (dose: 10.0 mg/kg/injection, schedule: Q01DX001 (ip), vehicle: carboxymethylcellulose (CMC)); 97 % of control (dose: 20.0 mg/kg/injection, schedule: Q01DX001 (ip), vehicle: carboxymethylcellulose (CMC)); 94 % of control (dose: 40.0 mg/kg/injection, schedule: Q01DX001 (ip), vehicle: carboxymethylcellulose (CMC)); 96 % of control (dose: 80.0 mg/kg/injection, schedule: Q01DX001 (ip), vehicle: carboxymethylcellulose (CMC)).
Consider `Oc1ccc2ccccc2c1/C=N/N1CCN(/N=C/c2c(O)ccc3ccccc23)CC1`, for which the T/C was 104 % of control under setting [6], 96 % of control under setting [7] and 90 % of control under setting [8].
For `CCOC(CN(Cc1ccc(OC)c(OCc2ccccc2)c1)S(=O)(=O)c1ccc(C)cc1)OCC`, the T/C is, setting by setting: (dose: 25.0 mg/kg/injection, schedule: Q01DX009 (ip), vehicle: water) 102 % of control; (dose: 50.0 mg/kg/injection, schedule: Q01DX009 (ip), vehicle: water) 94 % of control; (dose: 100.0 mg/kg/injection, schedule: Q01DX009 (ip), vehicle: water) 97 % of control; (dose: 200.0 mg/kg/injection, schedule: Q01DX009 (ip), vehicle: water) 94 % of control; (dose: 400.0 mg/kg/injection, schedule: Q01DX009 (ip), vehicle: water) 96 % of control.
As to `O=C1NC(=O)C2(CCCC2)N1`, the T/C is, setting by setting: under setting [6], 102 % of control; under setting [7], 108 % of control; under setting [8], 102 % of control.
For the compound `Cc1ccc(S(=O)(=O)Nc2ccc3ncccc3c2)cc1`, the T/C under setting [6] is 103 % of control, the T/C under setting [7] was 102 % of control and the T/C under setting [8] was 96 % of control.
As to `O=C1NCC(CCl)O1` (stereo unspecified), the T/C reads like this: under setting [6], 101 % of control; under setting [7], 91 % of control; under setting [8], 101 % of control.
Turning to `CCOC(=O)NC1c2ccccc2Oc2ccccc21`, the T/C by setting is: (dose: 75.0 mg/kg/injection, schedule: Q01DX009 (ip), vehicle: saline) 115 % of control; (dose: 100.0 mg/kg/injection, schedule: Q04DX002 (ip), vehicle: Klucel (hydroxypropylcellulose) (HPC)) 102 % of control; (dose: 150.0 mg/kg/injection, schedule: Q01DX009 (ip), vehicle: saline) 103 % of control; (dose: 200.0 mg/kg/injection, schedule: Q04DX002 (ip), vehicle: Klucel (hydroxypropylcellulose) (HPC)) 105 % of control; (dose: 300.0 mg/kg/injection, schedule: Q01DX009 (ip), vehicle: saline) 111 % of control; (dose: 400.0 mg/kg/injection, schedule: Q04DX002 (ip), vehicle: Klucel (hydroxypropylcellulose) (HPC)) 102 % of control.
`CCCCCCCCCCC(=O)CC`: the T/C is, setting by setting: under setting [3], 102 % of control; under setting [9], 104 % of control; under setting [10], 113 % of control.
Turning to `NC(=O)OCC(N)C(=O)O` (stereo unspecified), the T/C (dose: 75.0 mg/kg/injection, schedule: Q01DX001 (ip), vehicle: saline) is 96 % of control; the T/C under setting [3] is 89 % of control; the T/C (dose: 150.0 mg/kg/injection, schedule: Q01DX001 (ip), vehicle: saline) is 94 % of control; the T/C under setting [9] is 87 % of control; the T/C (dose: 300.0 mg/kg/injection, schedule: Q01DX001 (ip), vehicle: saline) was 100 % of control; the T/C under setting [10] is 90 % of control.
With `O=C(O)CCC(=O)O.[Ag]`, the T/C (dose: 12.5 mg/kg/injection, schedule: Q04DX003 (ip), vehicle: saline with Tween-80) was 93 % of control; the T/C (dose: 25.0 mg/kg/injection, schedule: Q01DX009 (ip), vehicle: acetone) was 86 % of control; the T/C (dose: 25.0 mg/kg/injection, schedule: Q04DX003 (ip), vehicle: saline with Tween-80) was 95 % of control.
Regarding `CN(C)CCCNC(=O)Nc1ccccc1`, the T/C under setting [11] was 100 % of control; the T/C (dose: 100.0 mg/kg/injection, schedule: Q04DX003 (ip), vehicle: Klucel (hydroxypropylcellulose) (HPC)) is 120 % of control; the T/C under setting [12] is 98 % of control; the T/C (dose: 200.0 mg/kg/injection, schedule: Q04DX003 (ip), vehicle: Klucel (hydroxypropylcellulose) (HPC)) is 93 % of control.
As to `Cc1ccc([N+](=O)[O-])cc1NC(=O)N(C1CCCCC1)C1CCCCC1`, the T/C was 95 % of control under setting [11], 97 % of control under setting [12] and 97 % of control under setting [13].
For `O=C(O)/C=C(\Cl)CC(=O)O`, the T/C is 102 % of control under setting [6] and 96 % of control under setting [7].
Consider `CCOC(OCC)C(=O)OCC(=O)[C@]1(O)Cc2c(O)c3c(c(O)c2[C@@H](OC2CC(N)C(O)C(C)O2)C1)C(=O)c1c(OC)cccc1C3=O` (stereo partly specified), for which the T/C by setting is: (dose: 0.25 mg/kg/injection, schedule: Q01DX009 (ip), vehicle: saline) 118 % of control; (dose: 2.0 mg/kg/injection, schedule: Q01DX009 (ip), vehicle: saline) 182 % of control; (dose: 4.0 mg/kg/injection, schedule: Q01DX009 (ip), vehicle: saline) 90 % of control.
As to `C/C(N=Nc1ccccc1)=N\Nc1cccc(C(F)(F)F)c1`, the T/C (dose: 50.0 mg/kg/injection, schedule: Q01DX009 (ip), vehicle: Klucel (hydroxypropylcellulose) (HPC)) is 107 % of control; the T/C under setting [11] is 102 % of control; the T/C under setting [12] is 110 % of control; the T/C under setting [13] is 102 % of control.
In the case of `C[n+]1ccccc1/C=N/Nc1ccccc1`, for the setting “dose: 75.0 mg/kg/injection, schedule: Q01DX001 (ip), vehicle: other”, the T/C was 96 % of control.

Values taken from PubChem BioAssay AID248 (DTP/NCI, 2004).
